Data from US7238720B2, “Pharmaceutical use of N-carbamoylazole derivatives” (Eisai R & D Management Co. Ltd., priority 2001, dated 2007).

Target: T1, DPP-IV, obtained from porcine kidneys (Sus scrofa, UniProt P22411)
T1 construct: DPP-IV, obtained from porcine kidneys; from tissue; host or cells: porcine kidney
Test: Measurement of DPPIV inhibiting effects (Gly-Pro-p-nitroanilide, absorbance at 405 nm)
Assay type: biochemical
Details: porcine kidney DPP-IV 10 mU/mL, 20 min preincubation, Gly-Pro-p-nitroanilide 0.33 mM, pH 7.4
Method: Measurement of DPPIV Inhibiting Effects
DPP-IV, obtained from porcine kidneys, was dissolved in a reaction buffer solution (50 mM Tris-HCl, pH 7.4, 0.1% BSA) such that the concentration of DPP-IV was at 10 mU/mL. This solution (110 μl) was placed into test tubes, to which compounds to be tested were further added at a quantity of 15 μl and incubated at room temperature for 20 minutes. Twenty-five microliters of a solution in which Gly-Pro-p-nitroanilide was dissolved at 2 mM was added (final concentration, 0.33 mM) to start the enzymatic reaction. The reaction time was 20 minutes. The reaction was stopped by the addition of 25 μl of 1 N phosphoric acid.

T1 sequence (P22411 whole entry): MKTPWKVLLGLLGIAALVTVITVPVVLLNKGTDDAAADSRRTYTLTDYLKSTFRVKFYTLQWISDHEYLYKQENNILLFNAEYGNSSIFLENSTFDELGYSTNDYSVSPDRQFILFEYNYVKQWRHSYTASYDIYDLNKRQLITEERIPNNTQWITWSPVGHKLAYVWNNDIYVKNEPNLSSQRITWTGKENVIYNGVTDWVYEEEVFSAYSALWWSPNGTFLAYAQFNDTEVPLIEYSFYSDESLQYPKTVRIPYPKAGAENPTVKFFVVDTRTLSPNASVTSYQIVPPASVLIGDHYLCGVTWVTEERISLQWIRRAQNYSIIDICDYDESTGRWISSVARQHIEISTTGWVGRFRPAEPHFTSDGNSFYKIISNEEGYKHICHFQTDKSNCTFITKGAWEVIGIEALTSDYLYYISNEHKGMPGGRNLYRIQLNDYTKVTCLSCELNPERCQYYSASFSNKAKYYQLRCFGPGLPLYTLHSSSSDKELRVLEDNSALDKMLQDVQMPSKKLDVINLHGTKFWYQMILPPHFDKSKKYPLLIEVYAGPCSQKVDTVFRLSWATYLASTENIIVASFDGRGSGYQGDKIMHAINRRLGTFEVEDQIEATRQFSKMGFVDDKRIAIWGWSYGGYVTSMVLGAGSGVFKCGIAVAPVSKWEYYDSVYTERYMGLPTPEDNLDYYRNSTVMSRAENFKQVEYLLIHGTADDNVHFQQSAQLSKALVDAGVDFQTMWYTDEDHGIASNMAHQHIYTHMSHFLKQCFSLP

Molecule	IC50
3-(Endo-norbornan-2-yl)sulfonyl-1-(N-methyl-N-phenylcarbamoyl)-1H-1,2,4-triazole [Example 22]	2290 nM
CN(C)C(=O)n1cnc(S[C@@H]2C[C@@H]3CC[C@H]2C3)n1 (relative stereo) [Example 12, 3-(Endo-norbornan-2-yl)thio-1-dimethylcarbamoyl-1H-1,2,4-triazole]	1730 nM
CCN(C)C(=O)n1cnc(S(=O)(=O)[C@@H]2C[C@@H]3CC[C@H]2C3)n1 (relative stereo) [Example 24, 3-(Endo-norbornan-2-yl)sulfonyl-1-(N-methyl-N-ethylcarbamoyl)-1H-1,2,4-triazole]	21.5 nM
O=C(N1CCSC1)n1cnc(S(=O)(=O)[C@@H]2C[C@@H]3CC[C@H]2C3)n1 (relative stereo) [Example 25, 3-(Endo-norbornan-2-yl)sulfonyl-1-(1,3-thiazolidin-3-yl)carbonyl-1H-1,2,4-triazole]	57.4 nM
O=C(N1CCCC1)n1cnc(S(=O)(=O)[C@@H]2C[C@@H]3CC[C@H]2C3)n1 (relative stereo) [Example 26, 3-(Endo-norbornan-2-yl)sulfonyl-1-(pyrrolidin-1-yl)carbonyl-1H-1,2,4-triazole]	244 nM
C=CCN(C)C(=O)n1cnc(S(=O)(=O)[C@@H]2C[C@@H]3CC[C@H]2C3)n1 (relative stereo) [Example 27, 3-(Endo-norbornan-2-yl)sulfonyl-1-(N-methyl-N-allylcarbamoyl)-1H-1,2,4-triazole]	78.2 nM
CCCN(C)C(=O)n1cnc(S(=O)(=O)[C@@H]2C[C@@H]3CC[C@H]2C3)n1 (relative stereo) [Example 28, 3-(Endo-norbornan-2-yl)sulfonyl-1-(N-methyl-N-propylcarbamoyl)-1H-1,2,4-triazole]	58.4 nM
CC(C)N(C)C(=O)n1cnc(S(=O)(=O)[C@@H]2C[C@@H]3CC[C@H]2C3)n1 (relative stereo) [Example 29, 3-(Endo-norbornan-2-yl)sulfonyl-1-(N-methyl-N-isopropylcarbamoyl)-1H-1,2,4-triazole]	8.88 nM
CC(C)CN(C)C(=O)n1cnc(S(=O)(=O)[C@@H]2C[C@@H]3CC[C@H]2C3)n1 (relative stereo) [Example 30, 3-(Endo-norbornan-2-yl)sulfonyl-1-(N-methyl-N-isobutylcarbamoyl)-1H-1,2,4-triazole]	266 nM
CN(C(=O)n1cnc(S(=O)(=O)[C@@H]2C[C@@H]3CC[C@H]2C3)n1)C(C)(C)C (relative stereo) [Example 31, 3-(Endo-norbornan-2-yl)sulfonyl-1-(N-methyl-N-tert-butylcarbamoyl)-1H-1,2,4-triazole]	920 nM
CN(C)C(=O)n1cnc(S(=O)(=O)C2CCCCC2)n1 [Example 15, 3-Cyclohexylsulfonyl-1-dimethylcarbamoyl-1H-1,2,4-triazole]	311 nM
CN(C)C(=O)n1cnc(SCC2CCCCC2)n1 [Example 16, 3-Cyclohexylmethylthio-1-dimethylcarbamoyl-1H-1,2,4-triazole]	5530 nM
CN(C)C(=O)n1cnc(S(=O)(=O)CC2CCCCC2)n1 [Example 17, 3-Cyclohexylmethylsulfonyl-1-dimethylcarbamoyl-1H-1,2,4-triazole]	416 nM
CN(C)C(=O)n1cnc(SCC23CC4CC(CC(C4)C2)C3)n1 [Example 18, 3-(1-Adamantylmethyl)thio-1-dimethylcarbamoyl-1H-1,2,4-triazole]	4530 nM
CN(C)C(=O)n1cnc(S(=O)(=O)CC23CC4CC(CC(C4)C2)C3)n1 [Example 19, 3-(1-Adamantylmethyl)sulfonyl-1-dimethylcarbamoyl-1H-1,2,4-triazole]	233 nM
CC(C)CCS(=O)(=O)c1ncn(C(=O)N(C)C)n1 [Example 20, 3-(3-Methylbutyl)sulfonyl-1-dimethylcarbamoyl-1H-1,2,4-triazole]	1370 nM
CN(C)C(=O)n1cnc(S(=O)(=O)CC(C)(C)C)n1 [Example 21, 3-(2-Dimethylpropyl)sulfonyl-1-dimethylcarbamoyl-1H-1,2,4-triazole]	688 nM
Cc1cc(C)c(Sc2ncn(C(=O)N(C)C)n2)c(C)c1 [Example 32, 3-(2,4,6-Trimethylphenyl)thio-1-dimethylcarbamoyl-1H-1,2,4-triazole]	3690 nM
CCN(CC)C(=O)n1cnc(S(=O)(=O)c2c(C)cc(C)cc2C)n1 [Example 34, 3-(2,4,6-Trimethylphenyl)sulfonyl-1-diethylcarbamoyl-1H-1,2,4-triazole]	6630 nM
Cc1cc(C)c(S(=O)(=O)c2ncn(C(=O)N(C)C(C)C)n2)c(C)c1 [Example 38, 3-(2,4,6-Trimethylphenyl)sulfonyl-1-(N-methyl-N-isopropylcarbamoyl)-1H-1,2,4-triazole]	1.63 nM
Cc1cc(C)c([S+]([O-])c2ncn(C(=O)N(C)C)n2)c(C)c1 (stereo not shown) [Example 39, 3-(2,4,6-Trimethylphenyl)sulfinyl-1-dimethylcarbamoyl-1H-1,2,4-triazole]	22.8 nM
Cc1cccc(OCC(F)(F)F)c1S(=O)(=O)c1ncn(C(=O)N(C)C)n1 [Example 41, 3-[2-(2,2,2-Trifluoroethyl)oxy-6-methylphenyl]sulfonyl-1-dimethyl-carbamoyl-1H-1,2,4-triazole]	4.25 nM
CN(C)C(=O)n1cnc(S(=O)(=O)c2cc(F)c(C#N)cc2F)n1 [Example 45, 3-(4-Cyano-2,5-difluorophenyl)sulfonyl-1-dimethylcarbamoyl-1H-1,2,4-triazole]	32.4 nM
Cc1noc(C)c1Sc1ncn(C(=O)N(C)C)n1 [Example 46, 3-(3,5-Dimethylisoxazol-4-yl)thio-1-dimethylcarbamoyl-1H-1,2,4-triazole]	1770 nM

Next, values leading:

IC50	Molecule
4690 nM	CN(C)C(=O)n1cnc(SCc2ccccc2)n1 [Example 1, 3-Benzylthio-1-dimethylcarbamoyl-1H-1,2,4-triazole]
784 nM	CCN(CC)C(=O)n1cnc(S(=O)(=O)Cc2ccccc2)n1 [Example 3, 3-Benzylsulfonyl-1-diethylcarbamoyl-1H-1,2,4-triazole]
657 nM	CN(C)C(=O)n1cnc(S(=O)(=O)Cc2ccc(F)cc2)n1 [Example 4, 3-(4-Fluorobenzyl)sulfonyl-1-dimethylcarbamoyl-1H-1,2,4-triazole]
1350 nM	CN(C)C(=O)n1cnc(S(=O)(=O)Cc2ccc(C(C)(C)C)cc2)n1 [Example 5, 3-(4-Tert-butylbenzyl)sulfonyl-1-dimethylcarbamoyl-1H-1,2,4-triazole]
3460 nM	CN(C)C(=O)n1cnc(SC(c2ccccc2)c2ccccc2)n1 [Example 6, 3-(Diphenylmethyl)thio-1-dimethylcarbamoyl-1H-1,2,4-triazole]
192 nM	CN(C)C(=O)n1cnc(S(=O)(=O)C(c2ccccc2)c2ccccc2)n1 [Example 7, 3-(Diphenylmethyl)sulfonyl-1-dimethylcarbamoyl-1H-1,2,4-triazole]
3360 nM	CN(C)C(=O)n1cnc(SC(c2ccc(F)cc2)c2ccc(F)cc2)n1 [Example 8, 3-[Bis(4-fluorophenyl)methyl]thio-1-dimethylcarbamoyl-1H-1,2,4-triazole]
219 nM	CN(C)C(=O)n1cnc(S(=O)(=O)C(c2ccc(F)cc2)c2ccc(F)cc2)n1 [Example 9, 3-[Bis(4-fluorophenyl)methyl]sulfonyl-1-dimethylcarbamoyl-1H-1,2,4-triazole]
694 nM	CN(C)C(=O)n1cnc(SC2CCOc3ccccc32)n1 (stereo not shown) [Example 10, 3-(Chroman-4-yl)thio-1-dimethylcarbamoyl-1H-1,2,4-triazole]
216 nM	CN(C)C(=O)n1cnc(S(=O)(=O)C2CCOc3ccccc32)n1 (stereo not shown) [Example 11, 3-(Chroman-4-yl)sulfonyl-1-dimethylcarbamoyl-1H-1,2,4-triazole]
2220 nM	CN(C)C(=O)n1cnc(SC2CCCCC2)n1 [Example 14, 3-Cyclohexylthio-1-dimethylcarbamoyl-1H-1,2,4-triazole]
9.51 nM	Cc1cc(C)c(S(=O)(=O)c2ncn(C(=O)N(C)C)n2)c(C)c1 [Example 33, 3-(2,4,6-Trimethylphenyl)sulfonyl-1-dimethylcarbamoyl-1H-1,2,4-triazole]
1510 nM	Cc1cc(C)c(S(=O)(=O)c2ncn(C(=O)N(C)c3ccccc3)n2)c(C)c1 [Example 35, 3-(2,4,6-Trimethylphenyl)sulfonyl-1-(N-methyl-N-phenylcarbamoyl)-1H-1,2,4-triazole]
0.347 nM	CCN(C)C(=O)n1cnc(S(=O)(=O)c2c(C)cc(C)cc2C)n1 [Example 36, 3-(2,4,6-Trimethylphenyl)sulfonyl-1-(N-methyl-N-ethylcarbamoyl)-1H-1,2,4-triazole]
10 nM	CCCN(C)C(=O)n1cnc(S(=O)(=O)c2c(C)cc(C)cc2C)n1 [Example 37, 3-(2,4,6-Trimethylphenyl)sulfonyl-1-(N-methyl-N-propylcarbamoyl)-1H-1,2,4-triazole]
551 nM	COCCOc1cccc(C)c1Sc1ncn(C(=O)N(C)C)n1 [Example 42, 3-[2-(2-Methoxyethyl)oxy-6-methylphenyl]thio-1-dimethylcarbamoyl-1H-1,2,4-triazole]
318 nM	CN(C)C(=O)n1cnc(Sc2cc(F)c(C#N)cc2F)n1 [Example 44, 3-(4-Cyano-2,5-difluorophenyl)thio-1-dimethylcarbamoyl-1H-1,2,4-triazole]
103 nM	Cc1noc(C)c1S(=O)(=O)c1ncn(C(=O)N(C)C)n1 [Example 47, 3-(3,5-Dimethylisoxazol-4-yl)sulfonyl-1-dimethylcarbamoyl-1H-1,2,4-triazole]
1550 nM	Cc1nn(-c2ccccc2)c(C)c1Sc1ncn(C(=O)N(C)C)n1 [Example 48, 3-(3,5-Dimethyl-1-phenylpyrazol-4-yl)thio-1-dimethylcarbamoyl-1H-1,2,4-triazole]
